Key:
Type in all cases: cell-based
[1] = system: HIV protease inhibitor resistant strain MT2-884; assay: Antiviral activity against protease inhibitor resistant strain MT2-884 in MT2 cells (P24 ELISA); details: Table 9, MT2 + MT2-884, positive drug, concentration 1 μM
Description: The experimental method of example 5 was the same as Step 1 of Example 3, except that the tested strain was a protease inhibitor resistant strain MT2-884, and the infected cells were MT2 cells. Firstly, cell culture and recombinant lentivirus SIV-G3L2 or SIV-G2N infection: Cells were cultured in 6-well plates, and the experimental group SIV-G3L2 or SIV-G2N, SIV-EGFP empty vector control group, positive drug control group (Efavirenz, EFV, Shanghai Desano Pharmaceuticals Co., Ltd., Concentration 1 μM), no drug control group (MT2-884 infection, and no recombinant lentivirus drug administration), and a blank control group were set on the 6-well plates. The recombinant lentiviruses were added to the 6-well plates with the multiplicity of infection (MOI) of 125, 250, 500, 1000 and 2000, respectively, and the recombinant lentivirus SIV-EGFP with MOI of 2000 was added as an empty vector control. Mixed and cultured.
Then virus challenge: the MT2 cells were diluted and inoculated in 96-well plates at 1×10^4 cells/well. […] The OD value was measured with a microplate reader. then average value, and relative concentration was calculated to determine the antiviral activity of the recombinant lentiviruses against MT2-884 in MT2 cells.

[2] = system: HIV reverse transcriptase inhibitor resistant strain MT2-010; assay: Antiviral activity against reverse transcriptase inhibitor resistant strain MT2-010 in MT2 cells (P24 ELISA); details: MT2 + MT2-010, positive drug, concentration 1 μM; for Average concentration: P24 ELISA; for Relative concentration(%): vs no-drug control = 100
Description: The experimental design of example 4 was the same as that of Example 3, except that the tested strain was a reverse transcriptase inhibitor resistant strain MT2-010, and the infected cells were MT2 cells. Firstly, cell culture and recombinant lentivirus infection: the experimental group SIV-G3L2 or
SIV-G2N, SIV-EGFP empty vector control group, positive drug control group (Efavirenz, EFV, Shanghai Desano Pharmaceuticals Co., Ltd., Concentration 1 μM), no drug control group (MT2-010 infection, and no recombinant lentivirus drug administration), and a blank control group were set on the 6-well plates. The recombinant lentiviruses were added to the 6-well plates with the multiplicity of infection (MOI) of 125, 250, 500, 1000 and 2000, respectively, and the recombinant lentivirus SIV-EGFP with MOI of 2000 was added as an empty vector control. Mixed and cultured.
Then virus challenge: the MT2 cells were diluted and inoculated in 96-well plates at 1×10^4 cells/well. The reverse transcriptase inhibitor resistant strain MT2-010 was diluted with complete culture medium, and mixed. The virus diluent was added into each well of cells, except for the blank control group. Mixed and cultured. The sampling was performed as described in Example 3, and ELISA detection was performed by using the above-mentioned kit. The OD value was measured with a microplate reader. Then average value, and relative concentration was calculated to determine the antiviral activity of the recombinant lentiviruses against MT2-010 in MT2 cells.

[3] = system: HIV-1 IIIB; assay: Antiviral activity of recombinant lentiviruses against HIV-1 IIIB in H9 cells (P24 antigen ELISA); details: H9 + HIV-1 IIIB, positive drug, concentration 1 μM; for Relative concentration(%): vs no-drug control = 100; for Average concentration of P24: day 7
Description: The H9 cells were resuscitated and subcultured in complete medium (RPMI-1640+10% FBS+PS). The cells were resuspended in OPTI-MEM medium, counted and adjusted to a concentration of 5×10^5 cells/ml, and inoculated in 6-well plates with 2 ml per well. The experimental groups SIV-Gag3, SIV-Gag2, SIV-Gag1, SIV-LTR2 or SIV-Nef, SIV-EGFP empty vector control group and blank control group (no HIV-1 IIIB infection, and […]) were set on the 6-well plates. The above recombinant lentiviruses were added to the 6-well plates with the multiplicity of infection (MOI) of 2000, mixed, and cultured at 37° C., 5% CO2 for 24 hours. Each well was supplemented with 4 ml complete medium and cultured at 37° C., 5% CO2 for 72 hours.
(§1) 5 ml of supernatant from each well of 6-well plates was discarded and another 5 ml of fresh complete medium was added. Cells were diluted and inoculated in 96-well plates at 1×10^4 cells/well. 0.5 ml of HIV-1 IIIB was diluted with 5.75 ml of complete medium and mixed. Then 100 μl of virus diluent was added to each well of cells, except for the blank control group, mixed and incubated at 37° C. and 5% CO2. Half volume of liquid was changed on day 2 and day 4 after HIV-1 IIIB infection, respectively. 150 μl of sample was taken from each well on day 7 after infection, sealed and heated at 56° C. for 30 minutes. After the HIV viruses were thermally inactivated, the sample was stored at −20° C., ready for ELISA detection.
HIV-1 P24 antigen detection kit (96T) (Beijing Jinboyi Biotechnology Co., Ltd.) was used for ELISA detection. The OD Value was measured with a microplate reader. Then average value, and relative concentration was calculated to determine the antiviral activity of the recombinant lentiviruses against HIV-1 IIIB in H9 cells.
The H9 cells were resuscitated and subcultured in complete medium (RPMI-1640+10% FBS+PS). The cells were resuspended in OPTI-MEM medium, counted and adjusted to a concentration of 5×10^5 cells/ml, and inoculated in 6-well plates with 2 ml per well. The experimental groups SIV-G3L2, SIV-G2L2, SIV-G1L2, or SIV-G2N, SIV-EGFP empty vector control group, positive drug control group (Efavirenz, EFV, Shanghai Desano Pharmaceuticals Co., Ltd., Concentration 1 μM), no-drug control group (HIV-1 IIIB infection, and no recombinant lentivirus drug administration) and blank control group (no HIV-1 IIIB infection, and no lentivirus drug administration) were set on the 6-well plates. The recombinant lentiviruses were added to the 6-well plates at five doses with the multiplicity of infection (MOI) of 125, 250, 500, 1000, and 2000, and the added volumes were 2.1 μL, 4.2 μL, 8.4 μL, 16.7 μL, 33.3 μL, respectively, with one well for each dose. The recombinant lentivirus SIV-EGFP with MOI of 2000 was added as an empty vector control, the volume was 33.3 μL. Mixed, and cultured at 37° C. and 5% CO2 for 24 hours. Each well was supplemented with 4 ml complete medium and cultured at 37° C., 5% CO2 for 72 hours.
as §1, with “the cells” for “Cells”

O=C1Nc2ccc(Cl)cc2[C@@](C#CC2CC2)(C(F)(F)F)O1 [EFV, Efavirenz]
Average concentration(pg/ml) ([1]; P24 ELISA): 50 pg/mL
Relative concentration(%) ([1]; vs no-drug control = 100): 0.51%
Average concentration ([2]; Table 7): 52.69
Relative concentration(%) ([2]; Table 7): 0.17%
Average concentration ([2]; Table 8): 59.36
Relative concentration(%) ([2]; Table 8): 0.21%
Average concentration ([3]; Table 3, P24 ELISA day 7): 10
Relative concentration(%) ([3]; Table 3): 0.05%
Average concentration of P24 ([3]; Table 4): <10 pg/mL
Relative concentration(%) ([3]; Table 4): 0.05%
Average concentration of P24 ([3]; Table 5): <10 pg/mL
Relative concentration(%) ([3]; Table 5): 0.05%
Average concentration of P24 ([3]; Table 6): <10 pg/mL
Relative concentration(%) ([3]; Table 6): 0.05%

Source: patent US20250101429A1, “siRNAs and shRNAs Targeting HIV and Combinations, Expression Cassettes, Cells and Use Thereof” (BEIJING SOLOBIO GENETECHNOLOGY CO., LTD., priority 2021, published 2025)
